Assay results reported in ChEMBL document CHEMBL5346925, “3,4-Dihydrobenzo[e][1,2,3]oxathiazine 2,2-dioxide analogs act as potential AMPA receptor potentiators with antidepressant activity” (Eur J Med Chem, 2023).

Columns and labels:
[1] = MRT (0 to t) in Sprague-Dawley rat at 3 mg/kg, po by LC-MS/MS analysis; format: ADME, organism-based; conditions: in vivo
[2] = molecular target: T1, Glutamate receptor ionotropic, AMPA (Rattus norvegicus) (UniProt P19491+P19492+P19493+P19490); experiment: Agonist activity at AMPA receptor in rat Primary neuron cells assessed as increase in fluorescence level at 1 uM incubated for 1 hr by calcium 2+ influx assay relative to s-AMPA coupled TAK-137; format: cell-based
[3] = Cmax in Sprague-Dawley rat at 3 mg/kg, po by LC-MS/MS analysis; format: ADME, organism-based; design: dose 3 mg/kg, route po; conditions: in vivo
[4] = MRT (0 to infinity) in Sprague-Dawley rat at 3 mg/kg, po by LC-MS/MS analysis; format: ADME, organism-based; conditions: in vivo
[5] = AUC (0 to infinity) in Sprague-Dawley rat at 3 mg/kg, po by LC-MS/MS analysis; format: ADME, organism-based; design: dose 3 mg/kg, route po; conditions: in vivo
[6] = Cmax in Sprague-Dawley rat at 0.3 mg/kg, iv by LC-MS/MS analysis; format: ADME, organism-based; design: dose 0.3 mg/kg, route iv; conditions: in vivo
[7] = AUC (0 to t) in Sprague-Dawley rat at 0.3 mg/kg, iv by LC-MS/MS analysis; format: ADME, organism-based; design: dose 0.3 mg/kg, route iv; conditions: in vivo
[8] = Volume of distribution at steady state in Sprague-Dawley rat at 0.3 mg/kg, iv by LC-MS/MS analysis; format: ADME, organism-based; conditions: in vivo, read-out: Vdss
[9] = Clearance in Sprague-Dawley rat at 0.3 mg/kg, iv by LC-MS/MS analysis; format: ADME, organism-based; conditions: in vivo
[10] = MRT (0 to t) in Sprague-Dawley rat at 0.3 mg/kg, iv by LC-MS/MS analysis; format: ADME, organism-based; conditions: in vivo
[11] = Half life in Sprague-Dawley rat at 0.3 mg/kg, iv by LC-MS/MS analysis; format: ADME, organism-based; conditions: in vivo
[12] = Oral bioavailability in Sprague-Dawley rat at 3 mg/kg by LC-MS/MS analysis; format: ADME, organism-based; conditions: in vivo
[13] = molecular target: T1, Glutamate receptor ionotropic, AMPA (Rattus norvegicus); experiment: Agonist activity at AMPA receptor in rat Primary neuron cells relative to control; format: cell-based; conditions: filed as agonist
[14] = AUC (0 to infinity) in Sprague-Dawley rat at 0.3 mg/kg, iv by LC-MS/MS analysis; format: ADME, organism-based; design: dose 0.3 mg/kg, route iv; conditions: in vivo
[15] = Tmax in Sprague-Dawley rat at 3 mg/kg, po by LC-MS/MS analysis; format: ADME, organism-based; conditions: in vivo
[16] = molecular target: Glutamate receptor ionotropic, AMPA (Rattus norvegicus, UniProt P19490+P19491+P19492+P19493); experiment: Agonist activity at AMPA receptor in rat Primary neuron cells; format: cell-based
[17] = molecular target: T1, Glutamate receptor ionotropic, AMPA (Rattus norvegicus); experiment: Agonist activity at AMPA receptor in rat Primary neuron cells assessed as potentiation of s-AMPA induced calcium flux at 1 uM incubated for 1 hr by calcium 2+ influx assay relative to s-AMPA coupled TAK-137; format: cell-based
[18] = MRT (0 to infinity) in Sprague-Dawley rat at 0.3 mg/kg, iv by LC-MS/MS analysis; format: ADME, organism-based; conditions: in vivo
[19] = Half life in Sprague-Dawley rat at 3 mg/kg, po by LC-MS/MS analysis; format: ADME, organism-based; conditions: in vivo
[20] = Tmax in Sprague-Dawley rat at 0.3 mg/kg, iv by LC-MS/MS analysis; format: ADME, organism-based; conditions: in vivo
[21] = AUC (0 to t) in Sprague-Dawley rat at 3 mg/kg, po by LC-MS/MS analysis; format: ADME, organism-based; design: dose 3 mg/kg, route po; conditions: in vivo

Compound `O=S1(=O)NCc2cccc(-c3ccc(Oc4ccccc4)cc3)c2O1` has an MRT last [1] of 2.63 h, an Activity [2] of 4.1% and a Cmax [3] of 96.1 ng/mL. For the same compound, the MRT inf [4] was 4.56 h, the AUC(0-inf) [5] was 328 ng·h/mL and the Cmax [6] was 246 ng/mL. It also gave an AUC(0-t) [7] of 134 ng·h/mL, a Vd [8] of 1.79 L/kg and a clearance [9] of 37.4 mL/min/kg. It also gave an MRT last [10] of 0.7 h, a half-life [11] of 1.27 h and a bioavailability [12] of 19.8%. For the same compound, the Emax [13] was 169%, the AUC(0-inf) [14] was 136 ng·h/mL and the Tmax [15] was 0.5 h. It also gave an EC50 [16] of 1630 nM, an Activity ([17]; filed as agonist) of 77.3% and an MRT inf [18] of 0.81 h. For the same compound, the half-life [19] was 3.12 h, the Tmax [20] was 4.8 min and the AUC(0-t) [21] was 265 ng·h/mL.
`O=S1(=O)NCc2cccc(-c3ccc(-c4ccc(F)c(F)c4)cc3)c2O1` showed an Activity [2] of 2.5% and an Activity [17] of 38.7%.
Compound `N#Cc1ccc(-c2cccc3c2OS(=O)(=O)NC3)cc1` has an Activity [2] of 2.9% and an Activity [17] of 23.7%.
For `O=S1(=O)NCc2cccc(-c3ccc(-c4ccc(OC(F)(F)F)cc4)cc3)c2O1`, the Activity [2] was -1.5% and the Activity [17] was -3%.
`O=S1(=O)NCc2cccc(-c3ccc(-c4ccc(C(F)F)cc4)cc3)c2O1` showed an Activity [2] of 7.2% and an Activity [17] of 23.9%.
With `CC(C)(C)c1ccc(-c2cccc3c2OS(=O)(=O)NC3)cc1` the Activity [2] was 29.4% and the Activity ([17]; filed as agonist) was 106%.
In the case of `COc1cccc(-c2ccc(-c3cccc4c3OS(=O)(=O)NC4C)cc2)c1` (stereo not drawn), the Activity [2] is reported as 4.2% and the Activity ([17]; filed as agonist) is reported as 58.5%.
In the case of `COc1c(C)cc(-c2cccc3c2OS(=O)(=O)NC3)cc1C`, the Activity [2] is reported as 3.1% and the Activity [17] is reported as 2.6%.
For `CC1NS(=O)(=O)Oc2c(-c3ccc(-c4ccc(F)cc4)cc3)cccc21` (stereo not drawn), the Activity [2] was 3.7% and the Activity ([17]; filed as agonist) was 59.6%.
Compound `CC(C)Oc1ccc(-c2cccc3c2OS(=O)(=O)NC3)cc1` has an Activity [2] of 13.2% and an Activity ([17]; filed as agonist) of 107%.
`O=S1(=O)NCc2cccc(-c3ccc(F)cc3)c2O1` showed an Activity [2] of 36.5% and an Activity ([17]; filed as agonist) of 48%.
Work on `CC1NS(=O)(=O)Oc2c(-c3ccc(-c4cccc(F)c4)cc3)cccc21` (stereo not drawn) yielded an Activity [2] of 8.6% and an Activity ([17]; filed as agonist) of 62.4%.
`COc1ccc(-c2ccc(-c3cccc4c3OS(=O)(=O)NC4C)cc2)cc1` (stereo not drawn) gave an Activity [2] of 2.1% and an Activity ([17]; filed as agonist) of 50.7%.
`Cc1ccc(-c2cccc3c2OS(=O)(=O)NC3)cc1` gave an Activity [2] of 7.3% and an Activity ([17]; filed as agonist) of 81.7%.
In the case of `Cc1ccc(-c2ccc(-c3cccc4c3OS(=O)(=O)NC4)cc2F)cc1`, the Activity [2] is reported as 6.3% and the Activity [17] is reported as 37.7%.
`CC(C)Oc1ccc(-c2ccc(-c3cccc4c3OS(=O)(=O)NC4)cc2)cc1` gave an Activity [2] of -2.1% and an Activity [17] of 3%.
`COc1ccc(-c2ccc(-c3cccc4c3OS(=O)(=O)NC4)cc2)cc1` gave an Activity [2] of -3.7%, an Emax [13] of 79% and an EC50 [16] of 1240 nM. The Activity ([17]; filed as agonist) was 82.4%.
Compound `Cc1ccc(-c2ccc(-c3cccc4c3OS(=O)(=O)NC4C)cc2)cc1` (stereo not drawn) has an Activity [2] of 0.1% and an Activity ([17]; filed as agonist) of 55.3%.
`O=S1(=O)NCc2cccc(-c3ccc4c(c3)OCCO4)c2O1` gave an Activity [2] of 19.5% and an Activity ([17]; filed as agonist) of 90.7%.
Compound `COc1ccc(-c2cccc3c2OS(=O)(=O)NC3)cc1` has an Activity [2] of 1%, an Emax [13] of 99% and an EC50 [16] of 555 nM. It also gave an Activity ([17]; filed as agonist) of 89.3%.
In the case of `COc1ccccc1-c1ccc(-c2cccc3c2OS(=O)(=O)NC3)cc1`, the Activity [2] is reported as 2.1%, the Emax [13] is reported as 125% and the EC50 [16] is reported as 379 nM. For the same compound, the Activity ([17]; filed as agonist) was 83.8%.
`O=S1(=O)NCc2cc(-c3ccc(Oc4ccccc4)cc3)ccc2O1` showed an Activity [2] of 0.5% and an Activity [17] of 1.4%.
For `COc1ccc(-c2ccc(-c3cccc4c3OS(=O)(=O)NC4)c(F)c2)cc1`, the Activity [2] was 3.2% and the Activity ([17]; filed as agonist) was 67.9%.
In the case of `O=S1(=O)NCc2cccc(-c3ccc(-c4ccc(C(F)(F)F)cc4)cc3)c2O1`, the Activity [2] is reported as 0.8% and the Activity [17] is reported as 0.7%.
In the case of `O=S1(=O)NCc2cccc(-c3ccc(-c4ccccc4)cc3)c2O1`, the Activity [2] is reported as 6.2% and the Activity ([17]; filed as agonist) is reported as 69.6%.
For `COc1cccc(-c2ccc(-c3cccc4c3OS(=O)(=O)NC4)cc2)c1`, the Activity [2] was 2.5% and the Activity ([17]; filed as agonist) was 56.4%.
`COc1ccc(-c2cccc3c2OS(=O)(=O)NC3)cc1C(F)(F)F` showed an Activity [2] of 1.9% and an Activity [17] of 0.6%.
Compound `O=S1(=O)NCc2cccc(-c3ccc(C(F)(F)F)cc3)c2O1` has an Activity [2] of 14% and an Activity ([17]; filed as agonist) of 81.3%.
Work on `O=S1(=O)NCc2cccc(-c3ccc(OC(F)(F)F)cc3)c2O1` yielded an Activity [2] of 1.4% and an Activity ([17]; filed as agonist) of 72.2%.
For `O=S1(=O)NCc2cccc(-c3ccc(-c4ccc(F)cc4)cc3)c2O1`, the Activity [2] was 8.1% and the Activity ([17]; filed as agonist) was 85.3%.
For `Cc1ccc(-c2ccc(-c3cccc4c3OS(=O)(=O)NC4)cc2)cc1`, the Activity [2] was 3.5% and the Activity ([17]; filed as agonist) was 66%.
With `O=S1(=O)NCc2cccc(-c3ccccc3Oc3ccccc3)c2O1` the Activity [2] was -0.5% and the Activity [17] was 1%.
With `O=S1(=O)NCc2cccc(-c3cccc(Oc4ccccc4)c3)c2O1` the Activity [2] was 1% and the Activity [17] was 1.9%.
`COc1ccc(-c2ccc(-c3cccc4c3OS(=O)(=O)NC4)cc2F)cc1` gave an Activity [2] of 5.3% and an Activity ([17]; filed as agonist) of 55.8%.
`CC(C)(C)c1ccc(-c2ccc(-c3cccc4c3OS(=O)(=O)NC4)cc2)cc1` gave an Activity [2] of -2% and an Activity [17] of -1.3%.
With `COc1ccccc1-c1ccc(-c2cccc3c2OS(=O)(=O)NC3C)cc1` (stereo not drawn) the Activity [2] was 8.5% and the Activity ([17]; filed as agonist) was 65.5%.
Compound `O=S1(=O)NCc2c(cccc2-c2ccc(Oc3ccccc3)cc2)O1` has an Activity [2] of 0.8% and an Activity [17] of 0%.
`COc1ccc(-c2cccc3c2OS(=O)(=O)NC3)c(F)c1` showed an Activity [2] of 8.2% and an Activity [17] of 10.3%.
For `O=S1(=O)NCc2ccc(-c3ccc(Oc4ccccc4)cc3)cc2O1`, the Activity [2] was 0.7% and the Activity [17] was -0.8%.
For `O=S1(=O)NCc2cccc(-c3ccc4c(c3)OCO4)c2O1`, the Activity [2] was 17.1% and the Activity ([17]; filed as agonist) was 92%.
`O=S1(=O)NCc2cccc(-c3ccc(-c4cccc(F)c4)cc3)c2O1` gave an Activity [2] of 3.5% and an Activity ([17]; filed as agonist) of 72.1%.
`COc1ccc(-c2cccc3c2OS(=O)(=O)NC3)cc1F` showed an Activity [2] of 19.2% and an Activity ([17]; filed as agonist) of 98.4%.
Compound `Cc1ccc(-c2ccc(-c3cccc4c3OS(=O)(=O)NC4)c(F)c2)cc1` has an Activity [2] of 1.4% and an Activity ([17]; filed as agonist) of 40.7%.
Compound `CC1NS(=O)(=O)Oc2c(-c3ccc(-c4ccccc4F)cc3)cccc21` (stereo not drawn) has an Activity [2] of 10.5% and an Activity ([17]; filed as agonist) of 69.2%.
